From PubChem BioAssay AID1963978 (Molecular Pharmacology Branch, DTP, NCI, 2024)

System: 616215-338-R-J1-PDC spheroids with HUVEC/MSC, viability
Experiment: Anticancer human tumor 616215-338-R-J1-PDC patient-derived colon adenocarcinoma cell line growth inhibition [PI3K]
Conditions: for IC50: curve of first compound; for viability, T/C: stronger effect = lower value
Procedure, shortened: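 Spheroid viability read-out. Co-cultures contained the tumor line plus HUVEC and human MSCs. Each agent was paired with a PI3K inhibitor (inavolisib, alpelisib, duvelisib, copanlisib) across half-log dilutions starting at clinical Cmax, or at 10 microM when Cmax was unknown.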

[1] = second compound 0.0316 µM, first compound 0.0316 µM
[2] = second compound 0.0316 µM, first compound 0.1 µM
[3] = second compound 0.1 µM, first compound 0.0316 µM
[4] = second compound 0.1 µM, first compound 0.1 µM
[5] = second compound 0.316 µM, first compound 0.0316 µM
[6] = second compound 0.316 µM, first compound 0.1 µM
[7] = second compound 1 µM, first compound 0.0316 µM
[8] = second compound 1 µM, first compound 0.1 µM
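Note: spheroids exposed to agents for seven days before the viability read.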

Cn1ncnc1[C@H]1c2n[nH]c(=O)c3cc(F)cc(c23)N[C@@H]1c1ccc(F)cc1 + COc1c(OCCCN2CCOCC2)ccc2c3n(c(=NC(=O)c4cnc(N)nc4)nc12)CCN3
IC50 (second compound 0.00316 µM): > 0.1 µM | IC50 (second compound 0.01 µM): > 0.1 µM | IC50 (second compound 0.0316 µM): > 0.1 µM | IC50 (second compound 0.1 µM): > 0.1 µM | IC50 (second compound 0.316 µM): < 0.000316 µM | IC50 (second compound 1 µM): < 0.000316 µM | viability, T/C (second compound 0.00316 µM, first compound 0.000316 µM): 99.2% | viability, T/C (second compound 0.00316 µM, first compound 0.001 µM): 101% | viability, T/C (second compound 0.00316 µM, first compound 0.00316 µM): 107% | viability, T/C (second compound 0.00316 µM, first compound 0.01 µM): 95.2% | viability, T/C (second compound 0.00316 µM, first compound 0.0316 µM): 92.5% | viability, T/C (second compound 0.00316 µM, first compound 0.1 µM): 94.1% | viability, T/C (second compound 0.01 µM, first compound 0.000316 µM): 93.8% | viability, T/C (second compound 0.01 µM, first compound 0.001 µM): 95.7% | viability, T/C (second compound 0.01 µM, first compound 0.00316 µM): 97.9% | viability, T/C (second compound 0.01 µM, first compound 0.01 µM): 97.7% | viability, T/C (second compound 0.01 µM, first compound 0.0316 µM): 96.9% | viability, T/C (second compound 0.01 µM, first compound 0.1 µM): 102% | viability, T/C (second compound 0.0316 µM, first compound 0.000316 µM): 96.9% | viability, T/C (second compound 0.0316 µM, first compound 0.001 µM): 99.3% | viability, T/C (second compound 0.0316 µM, first compound 0.00316 µM): 113% | viability, T/C (second compound 0.0316 µM, first compound 0.01 µM): 98% | viability, T/C [1]: 97% | viability, T/C [2]: 95.7% | viability, T/C (second compound 0.1 µM, first compound 0.000316 µM): 111% | viability, T/C (second compound 0.1 µM, first compound 0.001 µM): 93.6% | viability, T/C (second compound 0.1 µM, first compound 0.00316 µM): 88.5% | viability, T/C (second compound 0.1 µM, first compound 0.01 µM): 81% | viability, T/C [3]: 89.4% | viability, T/C [4]: 63.7% | viability, T/C (second compound 0.316 µM, first compound 0.000316 µM): 45.1% | viability, T/C (second compound 0.316 µM, first compound 0.001 µM): 41% | viability, T/C (second compound 0.316 µM, first compound 0.00316 µM): 31.9% | viability, T/C (second compound 0.316 µM, first compound 0.01 µM): 36.2% | viability, T/C [5]: 37% | viability, T/C [6]: 29.8% | viability, T/C (second compound 1 µM, first compound 0.000316 µM): 29.8% | viability, T/C (second compound 1 µM, first compound 0.001 µM): 24.9% | viability, T/C (second compound 1 µM, first compound 0.00316 µM): 23.1% | viability, T/C (second compound 1 µM, first compound 0.01 µM): 19.5% | viability, T/C [7]: 19.4% | viability, T/C [8]: 22.3%

Cn1ncc(Cl)c1-c1cc(C(=O)NC(CN)Cc2cccc(F)c2)sc1Cl (centres undefined) + CC(Nc1ncnc2nc[nH]c12)c1cc2cccc(Cl)c2c(=O)n1-c1ccccc1
IC50 (second compound 0.0316 µM): 5.37 µM | IC50 (second compound 0.1 µM): 4.2 µM | IC50 (second compound 0.316 µM): 4.15 µM | IC50 (second compound 1 µM): 4.48 µM | IC50 (second compound 3.16 µM): 3.16 µM | IC50 (second compound 10 µM): 3.29 µM | viability, T/C [1]: 106% | viability, T/C [2]: 87.6% | viability, T/C (second compound 0.0316 µM, first compound 0.316 µM): 98% | viability, T/C (second compound 0.0316 µM, first compound 1 µM): 93.7% | viability, T/C (second compound 0.0316 µM, first compound 3.16 µM): 75.7% | viability, T/C (second compound 0.0316 µM, first compound 10 µM): 19.8% | viability, T/C [3]: 107% | viability, T/C [4]: 103% | viability, T/C (second compound 0.1 µM, first compound 0.316 µM): 100% | viability, T/C (second compound 0.1 µM, first compound 1 µM): 92% | viability, T/C (second compound 0.1 µM, first compound 3.16 µM): 60.7% | viability, T/C (second compound 0.1 µM, first compound 10 µM): 16.4% | viability, T/C [5]: 98.4% | viability, T/C [6]: 100% | viability, T/C (second compound 0.316 µM, first compound 0.316 µM): 104% | viability, T/C (second compound 0.316 µM, first compound 1 µM): 95% | viability, T/C (second compound 0.316 µM, first compound 3.16 µM): 59.5% | viability, T/C (second compound 0.316 µM, first compound 10 µM): 19.6% | viability, T/C [7]: 95.9% | viability, T/C [8]: 88.5% | viability, T/C (second compound 1 µM, first compound 0.316 µM): 105% | viability, T/C (second compound 1 µM, first compound 1 µM): 94.5% | viability, T/C (second compound 1 µM, first compound 3.16 µM): 64% | viability, T/C (second compound 1 µM, first compound 10 µM): 17.6% | viability, T/C (second compound 3.16 µM, first compound 0.0316 µM): 104% | viability, T/C (second compound 3.16 µM, first compound 0.1 µM): 113% | viability, T/C (second compound 3.16 µM, first compound 0.316 µM): 96.1% | viability, T/C (second compound 3.16 µM, first compound 1 µM): 82.1% | viability, T/C (second compound 3.16 µM, first compound 3.16 µM): 50% | viability, T/C (second compound 3.16 µM, first compound 10 µM): 19.6% | viability, T/C (second compound 10 µM, first compound 0.0316 µM): 98.3% | viability, T/C (second compound 10 µM, first compound 0.1 µM): 112% | viability, T/C (second compound 10 µM, first compound 0.316 µM): 106% | viability, T/C (second compound 10 µM, first compound 1 µM): 75.1% | viability, T/C (second compound 10 µM, first compound 3.16 µM): 54.7% | viability, T/C (second compound 10 µM, first compound 10 µM): 20.6%
